Results on 18 compounds are retold here after publication PMC12027946, “Ionic and Non-Ionic Counterparts Based on Bis(Uracilyl)Alkane Moiety with Highest Selectivity Towards Acetylcholinesterase for Protection Against Organophosphate Poisoning and Treating Alzheimer’s Disease” (International Journal of Molecular Sciences, 2025).

Read-outs that look alike come from different tables or passages of the source.

Data set [1] deals with scopolamine-induced amnesia in mice. Put plainly: Novel object recognition test, scopolamine-induced amnesia. In kind it is in vivo. The method, then:
This study explored the ability of bisuracil 3c to counteract scopolamine-induced amnesia in mice, utilising behavioural assessments conducted through the novel object recognition test. […] The induction of amnesia was facilitated by the i.p. injection of scopolamine (1.5 mg/kg) 50 min prior to testing. […]. An equivalent amount of the vehicle was administered to a control group of mice.
The experiments were carried out on CD1 mice of both sexes weighing 24–25 g. The novel object recognition test was conducted over a period of three days. On the first day, the mice were placed individually into the square testing arena with black walls (50 cm in length, 50 cm in width, 38 cm in height) for 5 min without any objects. On the second day, two identical objects were placed in the central part of the arena, and the mice were allowed to explore the objects for 10 min. Test compounds were administered prior to testing on the second day. The induction of amnesia was facilitated by i.p. injection of scopolamine (1.5 mg/kg) 50 min prior to testing. Tested compounds were administered i.p. 30 min prior to testing. The control group of animals was administered with an equivalent amount of vehicle. On the third day, the mice were presented with a familiar and a novel object for 10 min. The time of exploration of each object by the mice was recorded using a digital camera. After each test, the arena was cleaned with a solution of 70% ethanol. At the end of the test, the preference index (exploration of novel object/total exploration time × 100) was calculated.

A further data set concerns AChE. Conditions: cited from earlier work.
Data set [2] deals with T1, human AChE (Homo sapiens, UniProt P22303).
T1 construct: purchased Sigma-Aldrich
T1 sequence (P22303 32-614): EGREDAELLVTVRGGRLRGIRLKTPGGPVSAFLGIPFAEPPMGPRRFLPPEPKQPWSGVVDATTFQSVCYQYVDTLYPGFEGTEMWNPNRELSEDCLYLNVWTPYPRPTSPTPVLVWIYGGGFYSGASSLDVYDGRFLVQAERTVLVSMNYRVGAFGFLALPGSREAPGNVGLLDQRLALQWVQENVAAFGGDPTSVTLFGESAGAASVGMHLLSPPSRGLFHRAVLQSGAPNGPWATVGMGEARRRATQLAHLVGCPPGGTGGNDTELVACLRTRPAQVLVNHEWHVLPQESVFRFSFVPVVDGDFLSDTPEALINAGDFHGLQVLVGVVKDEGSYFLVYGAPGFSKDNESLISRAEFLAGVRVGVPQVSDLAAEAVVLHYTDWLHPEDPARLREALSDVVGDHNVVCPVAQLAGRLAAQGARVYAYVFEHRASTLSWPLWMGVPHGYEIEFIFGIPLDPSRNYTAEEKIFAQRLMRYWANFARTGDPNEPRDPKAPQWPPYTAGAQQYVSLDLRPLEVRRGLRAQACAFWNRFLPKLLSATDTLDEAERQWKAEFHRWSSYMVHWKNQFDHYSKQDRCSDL
Briefly: In vitro cholinesterase inhibition (Ellman), AChE. In kind it is biochemical. Conditions: for IC50: read-out: IC50 AChE; for AChE Selectivity: (IC50 BuChE)/(IC50 AChE). The method, then: (§1) Inhibitory activities of the tested compounds against AChE and BChE were measured according to Ellman et al.. Enzyme-catalysed hydrolysis of ATCHh was carried out at 25 °C in 0.1 M phosphate buffer (pH 8.0) containing 0.25 U AChE, 1 mM ATCHh as substrates, and 0.1 mM of DTNB. In experiments with BuChE, 0.1 M phosphate buffer (pH 7.0) and BuTChh as a substrate were used. The tested compounds were pre-incubated with the enzyme for two minutes prior to the addition of the substrate and the subsequent recording of hydrolysis kinetics. […] A sample without an inhibitor was used as a control (100% cholinesterase activity). A sample without a substrate was used as a blank. Experiments were performed in triplicate.

Data set [3] has as its target T2, BChE from human plasma (Homo sapiens, UniProt P06276).
T2 construct: butyrylcholiesterase from human plasma; purchased Sigma-Aldrich; host or cells: human plasma
Put plainly: In vitro cholinesterase inhibition (Ellman), BuChE. In kind it is biochemical. The following applies: read-out: IC50 BuChE. The method, then: as §1

Data set [4] deals with mice poisoned with 2×LD50 of POX. Put plainly: Protection against POX toxicity (pre-treatment). Conditions: for relative risk of death (RRD): Cox analysis over 10 h. In kind it is in vivo. The method, then:
The concept of using reversible AChE inhibition as a preventive strategy to enhance the efficacy of traditional antidotes in OP poisoning is a well-established principle. This study explores the potential of bisuracil 2b as a preventive agent to protect AChE from irreversible inhibition caused by paraoxon (POX), a model OP. […] Following POX administration, the standard antidote atropine was given at a dose of 15 mg/kg within one minute. […] Increasing the dose of bisuracil 2b reduced the protective effect in POX poisoned animals (Table 3).
We also estimated the relative risk of death (RRD) as a function of precocity (from min to hours) over a period of 10 h by Cox survival analysis. Statistical differences in the number of surviving animals between experimental groups were tested using the Cox–Mantel multisample logarithmic rank criterion. It was shown that, in mice exposed to 0.42 mg/kg of POX, RRD = 1 (Figure 5). However, in animals that received atropine within 1 min after poisoning, POX-induced mortality was lower (RRD = 0.5; Figure 5).
The tested compound was administered via i.p. before POX injection.

In data set [5] the target is T1, human AChE. Conditions: Table 1, bisuracils 1a–f, cited from earlier work; for AChE Selectivity: (IC50 BuChE)/(IC50 AChE).
Data set [6] concerns the target T2, BChE from human plasma. The following applies: Table 1; bisuracils 1a–f; read-out: IC50 BuChE; cited from earlier work.
Where [7] appears, read: Table 1, recombinant human AChE, 25 °C, pH 8.0.
[8] abbreviates: Table 1, BChE from human plasma, pH 7.0.

A word on the IC50: it is the concentration needed to halve the response being measured.

T2 sequence (P06276 29-602): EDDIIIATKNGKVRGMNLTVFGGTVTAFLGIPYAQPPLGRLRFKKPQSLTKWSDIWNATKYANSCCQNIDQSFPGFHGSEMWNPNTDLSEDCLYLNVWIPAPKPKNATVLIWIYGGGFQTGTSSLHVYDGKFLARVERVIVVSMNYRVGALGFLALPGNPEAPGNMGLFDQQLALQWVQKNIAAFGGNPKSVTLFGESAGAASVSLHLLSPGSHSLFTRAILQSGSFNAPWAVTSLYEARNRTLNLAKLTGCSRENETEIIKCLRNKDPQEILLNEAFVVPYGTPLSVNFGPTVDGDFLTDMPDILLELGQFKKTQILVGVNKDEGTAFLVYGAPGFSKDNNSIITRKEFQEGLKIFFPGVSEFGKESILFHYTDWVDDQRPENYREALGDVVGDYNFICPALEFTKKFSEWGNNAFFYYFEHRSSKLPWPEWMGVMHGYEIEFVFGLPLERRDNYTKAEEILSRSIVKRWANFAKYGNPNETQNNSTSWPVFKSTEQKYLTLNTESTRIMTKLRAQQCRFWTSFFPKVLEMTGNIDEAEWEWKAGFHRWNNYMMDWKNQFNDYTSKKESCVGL

Take `COc1cc2c(cc1OC)C(=O)C(CC1CCN(Cc3ccccc3)CC1)C2` (stereo not drawn) [Donepezil, donepezil, reference compound]: in data set [1] (donepezil 1 mg/kg i.p. 30 min prior to testing, scopolamine 1.5 mg/kg, p = 0.03), the “increase in the preference for the novel object compared to the scopolamine-treated group” value came out at 32.2%.

For the compound `CCN(C)C(=O)Oc1cccc([C@H](C)N(C)C)c1` [rivastigmine], the “inhibition profile (AChE vs BuChE)” value in the data set with AChE is on record as “non-selective”.

As to `CC[N+](CC)(CCCCCn1c(=O)ccn(CCCn2c(C)cc(=O)n(C)c2=O)c1=O)Cc1ccccc1C#N` [2a, 1,3-{(3,6-Dimethyluracil-1-yl)-[3-(5-o-nitrilebenzyl(diethyl)ammonio)pentyl)-uracil-1-yl]}propane bromide], the concentration for half-maximal inhibition (IC50) on human AChE [2] (setting [7]) was 0.0003 ± 3e-05 µM; on BChE from human plasma [3] (setting [8]), 370 µM.

For the compound `CCOP(=O)(OCC)Oc1ccc([N+](=O)[O-])cc1` [POX, paraoxon, reference compound], the “relative risk of death (RRD)” value in data set [4] (POX 0.42 mg/kg alone) was 1. Further, in data set [4] (POX 0.42 mg/kg i.p. (2×LD50) alone), the “n/N (mice surviving 5 days after POX poisoning / total)” value is given as 0/12.

As for `CN1[C@@H]2C[C@@H](OC(=O)[C@H](CO)c3ccccc3)C[C@H]1[C@@H]1O[C@@H]12` [scopolamine, reference compound], the “reduction of the preference for the novel object compared to the control group” value in data set [1] (scopolamine 1.5 mg/kg i.p. 50 min prior to testing, p = 0.0001) came to 34.1%.

With `CC[N+](CC)(CCCCCn1c(=O)ccn(CCCCCn2c(C)cc(=O)n(C)c2=O)c1=O)Cc1ccccc1C(F)(F)F` [1e], the “AChE Selectivity” value at human AChE [5] is 120,000. Also, the 50% inhibitory concentration (IC50) on human AChE [5] was 0.0005 ± 3e-05 µM; at BChE from human plasma [6], 60 µM.

As for `CCN(CCCCCn1c(=O)ccn(CCCCCCn2c(C)cc(=O)n(C)c2=O)c1=O)Cc1ccccc1C#N` [3d], the concentration for half-maximal inhibition (IC50) on human AChE [2] (Table 2, human AChE) is 0.0054 ± 0.0007 µM; on BChE from human plasma [3] (Table 2, human BuChE) it was 95 µM.

For the compound `CCN(CCCCCn1c(=O)ccn(CCCn2c(C)cc(=O)n(C)c2=O)c1=O)Cc1ccccc1C#N` [3a], the “AChE Selectivity” value on human AChE [2] (Table 2) is 11,290. For the same compound, the 50% inhibitory concentration (IC50) on human AChE [2] (Table 2, human AChE) was found to be 0.0061 ± 0.0007 µM; on BChE from human plasma [3] (Table 2, human BuChE), 69.1 µM.

`CC[N+](CC)(CCCCCn1c(=O)ccn(CCCCCn2c(C)cc(=O)n(C)c2=O)c1=O)Cc1ccccc1C#N` [2c, 1,5-{(3,6-Dimethyluracil-1-yl)-[3-(5-o-nitrilebenzyl(diethyl)ammonio)pentyl)-uracil-1-yl]}pentane bromide]: on human AChE [2] (Table 1), the “AChE Selectivity” value is recorded as 388,888. Moreover, the figures for the IC50 at human AChE [2] (setting [7]) and on BChE from human plasma [3] (setting [8]) were 0.0002 ± 6e-05 µM and 70 µM, respectively.

For `CC[N+](CC)(CCCCCn1c(=O)ccn(CCCCCCn2c(C)cc(=O)n(C)c2=O)c1=O)Cc1ccccc1[N+](=O)[O-]` [1b], on human AChE [5], the “AChE Selectivity” value is recorded as 60,000 and the half-maximal inhibitory concentration (IC50) was 0.0001 ± 1e-05 µM. Moreover, on BChE from human plasma [6], the IC50 is 6 ± 0.43 µM.

Regarding `CCN(CCCCCn1c(=O)ccn(CCCCn2c(C)cc(=O)n(C)c2=O)c1=O)Cc1ccccc1C#N` [3b], the “AChE Selectivity” value on human AChE [2] (Table 2) was 6090. The IC50 on human AChE [2] (Table 2, human AChE) amounted to 0.0079 ± 0.00025 µM; on BChE from human plasma [3] (Table 2, human BuChE) it was 48.3 µM.

Regarding `CC[N+](CC)(CCCCCn1c(=O)ccn(CCCCn2c(C)cc(=O)n(C)c2=O)c1=O)Cc1ccccc1C(F)(F)F` [1d], at human AChE [5], the “AChE Selectivity” value is given as 200,000 and the IC50 was 0.001 ± 0.0001 µM. For the same compound, the IC50 at BChE from human plasma [6] was 200 µM.

`CC[N+](CC)(CCCCCn1c(=O)ccn(CCCCCn2c(C)cc(=O)n(C)c2=O)c1=O)Cc1ccccc1[N+](=O)[O-]` [1a]: the “AChE Selectivity” value on human AChE [5] is 112,676. In addition, the IC50 is 0.0004 ± 3e-05 µM at human AChE [5] and 40 µM on BChE from human plasma [6].

For `CN1[C@@H]2CC[C@H]1C[C@@H](OC(=O)C(CO)c1ccccc1)C2` (stereo partly drawn) [Atropine, atropine, reference compound], the “n/N (mice surviving 5 days after POX poisoning / total)” value in data set [4] (atropine 15 mg/kg i.p. 1 min after POX 0.42 mg/kg i.p., no pre-treatment) is given as 6/12. In addition, in data set [4] (atropine within 1 min after POX), the “relative risk of death (RRD)” value is listed as 0.5.

Turning to `CC[N+](CC)(CCCCCn1c(=O)ccn(CCCCCCn2c(C)cc(=O)n(C)c2=O)c1=O)Cc1ccccc1C#N` [2d, 1,6-{(3,6-Dimethyluracil-1-yl)-[3-(5-o-nitrilebenzyl(diethyl)ammonio)pentyl)-uracil-1-yl]}hexane bromide], the “AChE Selectivity” value on human AChE [2] (Table 1) is listed as 57,034. Besides, the figures for the IC50 at human AChE [2] (setting [7]) and at BChE from human plasma [3] (setting [8]) were 0.0005 ± 0.00016 µM and 30 µM, respectively.

In the case of `COc1ccc2c3c1O[C@H]1C[C@@H](O)C=C[C@@]31CCN(C)C2` [galantamine], in the data set on AChE, the “selectivity for AChE over BuChE” value was 50 fold.

Turning to `CC[N+](CC)(CCCCCn1c(=O)ccn(CCCn2c(C)cc(=O)n(C)c2=O)c1=O)Cc1ccccc1C(F)(F)F` [1c], the “AChE Selectivity” value on human AChE [5] is recorded as 220,000. The figures for the IC50 at human AChE [5] and on BChE from human plasma [6] were 0.002 ± 0.0002 µM and 440 µM, respectively.

Consider `CC[N+](CC)(CCCCCn1c(=O)ccn(CCCCCCn2c(C)cc(=O)n(C)c2=O)c1=O)Cc1ccccc1C(F)(F)F` [1f], for which the “AChE Selectivity” value at human AChE [5] is on record as 200,000. Also, the IC50 at human AChE [5] was 0.0002 ± 1e-05 µM; at BChE from human plasma [6], 40 µM.
